Reference: patent US20240043400A1, “Octahydroisoquinolinyl Derivatives” (UCB Biopharma SRL, priority 2020, published 2024)
pEC50: −log10 of the molar value.

Columns and labels:
[1] = biological target: T1, human GABAA receptor α1β2 and γ2 subunits (Homo sapiens, UniProt P14867+P18507+P47870); experiment: Automated patch clamp studies on the GABAA receptor cells; assay type: cell-based; settings: CHO-K1, 10 μM compound, 15 μM GABA, Table B
T1 construct: expressed in transfected cells
Method: CHO-K1 cells stably expressing human GABAA receptor α1β2 and γ2 subunits were used. The cells were harvested using trypsin and maintained in serum-free medium at room temperature. The cells were washed and re-suspended in extracellular solution before testing.
Experiments on human GABAA (α1β2γ2) channels were conducted using an automated patch clamp assay (lonFlux™ HT). The external solution for recording GABAA currents was composed of sodium chloride 137 mM, potassium chloride 4 mM, calcium chloride 1.8 mM, magnesium chloride 1 mM, HEPES 10 mM, and glucose 10 mM. Both external and internal solutions were titrated with NaOH or KOH to obtain a pH of 7.35 and 7.3, respectively. The internal pipette solution contained potassium fluoride 70 mM, potassium chloride 60 mM, sodium chloride 70 mM, HEPES 5 mM, EGTA 5 mM, and Magnesium ATP 4 mM. The final concentration of vehicle used to dilute compounds was 0.33% DMSO in each well. Bicuculline (0.032 to 100 μM) was used as positive control inhibitor. GABA (15 μM) was used as agonist. All recordings were obtained from a holding potential of −60 mV.
The compound addition sequence was the following: one addition of the EC80 concentration of GABA was added to establish baseline response. Each concentration of compound was applied for 30 seconds followed by the addition of 15 μM GABA in the presence of the compound for 2 seconds. The process was repeated with the next ascending concentration of compound. Peak inward currents in response to the GABA additions in the presence of a single concentration of compound were measured. All compound data have been normalized to the baseline peak current induced by addition of 15 μM GABA for 2 seconds.

CYP3A4 = biological target: T2, CYP3A4 (Homo sapiens, UniProt P08684); experiment: In vitro assessment of CYP3A4 inhibition potential using cryopreserved human microsomes; assay type: in vitro ADME; settings: human, cryopreserved human microsomes (pooled donors), probe midazolam 2.5 μM (1-hydroxymidazolam formation), 20 μM compound, human microsomes 0.25 mg/ml, Table C
T2 construct: cryopreserved human microsomes (pooled donors); from tissue
T2 sequence (P08684 whole entry): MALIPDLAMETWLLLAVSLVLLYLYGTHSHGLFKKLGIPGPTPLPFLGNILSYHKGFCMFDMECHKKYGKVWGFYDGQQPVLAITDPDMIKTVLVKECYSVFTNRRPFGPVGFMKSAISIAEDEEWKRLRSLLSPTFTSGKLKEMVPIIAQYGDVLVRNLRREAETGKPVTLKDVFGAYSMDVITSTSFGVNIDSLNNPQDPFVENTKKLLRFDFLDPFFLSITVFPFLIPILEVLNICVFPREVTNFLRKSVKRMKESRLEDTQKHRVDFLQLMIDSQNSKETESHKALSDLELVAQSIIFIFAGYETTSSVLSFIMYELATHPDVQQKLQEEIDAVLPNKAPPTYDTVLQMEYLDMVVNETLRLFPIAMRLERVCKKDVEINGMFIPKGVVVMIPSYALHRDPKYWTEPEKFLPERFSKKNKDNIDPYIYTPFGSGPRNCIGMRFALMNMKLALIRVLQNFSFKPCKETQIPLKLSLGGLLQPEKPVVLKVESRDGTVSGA
Method: The objective of the human microsome assay is to characterize the inhibition potential of Compound of formula (I) by measuring the CYP3A4 activities after its co-incubation with midazolam, a specific CYP3A4 substrate.
To this aim, cryopreserved human microsomes (pooled donors) are divided on a 48 well collagen coated plate so that the final concentration is 0.25 mg/ml. The UCB compound is then added in the wells at 20 μM concentration in duplicate. After 30 min incubation, midazolam is added at 2.5 μM concentration. After 15 min, an aliquot is removed and placed into an equal volume of methanol containing internal standard. The samples are centrifuged at 2500 rpm at 4° C. for 20 min. An aliquot of supernatant is diluted with deionised water and levels of 1-hydroxymidazolam is quantified using generic LC MS/MS methods.
The concentrations are compared to those obtained after midazolam incubation at the same concentration but without UCB compound pre-incubation. The results are expressed as % of inhibition.

dopamine D1 receptor = biological target: T3, dopamine D1 receptor (Homo sapiens, UniProt P21728); experiment: cAMP HTRF potentiation assay (in the presence of dopamine); assay type: cell-based; settings: potentiation of cAMP with [EC20] of dopamine (1.1 nM); LMtk (Ltk−) mouse fibroblast cells expressing the dopamine D1 receptor
T3 construct: host or cells: LMtk (Ltk-) mouse fibroblast cells, kept under Geneticin
T3 sequence (P21728 whole entry): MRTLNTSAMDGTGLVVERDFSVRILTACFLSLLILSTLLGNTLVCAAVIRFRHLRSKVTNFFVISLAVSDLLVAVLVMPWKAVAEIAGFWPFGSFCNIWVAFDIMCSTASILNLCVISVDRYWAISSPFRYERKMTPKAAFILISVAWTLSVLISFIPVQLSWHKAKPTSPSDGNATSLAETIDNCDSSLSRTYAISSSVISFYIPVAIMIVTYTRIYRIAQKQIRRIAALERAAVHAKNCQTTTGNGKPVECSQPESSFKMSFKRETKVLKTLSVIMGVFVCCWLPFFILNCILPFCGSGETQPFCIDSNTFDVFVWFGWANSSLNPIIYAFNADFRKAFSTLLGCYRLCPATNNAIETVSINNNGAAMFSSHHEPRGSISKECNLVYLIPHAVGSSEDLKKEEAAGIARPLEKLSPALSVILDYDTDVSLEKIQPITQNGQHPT
Method: The potentiation assay measures the ability of compounds to increase the levels of cAMP produced by a low-threshold concentration of dopamine. The concentration of dopamine used ([EC20]) is designed to produce 20% stimulation compared to the maximal response (100%) seen with increasing the concentration of dopamine. To measure this potentiation we incubate increasing concentrations of the compound with the [EC20] of dopamine and measure the potentiation as increases in cAMP production. The pEC50 of a compound is the −log 10 of the concentration of the compound which produces 50% of the potentiation of the cAMP levels and the Erel is the relative efficacy, defined as the maximal % potentiation produced by the compound compared to the maximal response produced by increasing concentrations of dopamine (Erel of 1=dopamine maximum response).
Cells were cultured at 37° C. in a humidified atmosphere of 5% CO2. Cells were grown in DMEM-F12+GlutaMAX™-1 medium (GIBCO®, Invitrogen, Merelbeke, Belgium) containing 10% fetal bovine serum (BioWhittaker®, Lonza, Verviers, Belgium), 400 μg/mL Geneticin (GIBCO®), 100 IU/mL Penicillin and 100 IU/mL Streptomycin (Pen-Strep solution, BioWhittaker®).
The measurement of changes in intracellular cyclic adenosinemonophopshpate (cAMP) was determined using the HTRF cAMP dynamic assay kit from CisBio (Codolet, France). Using homogenous time-resolved fluoresence technology, the assay is based on competition between native cAMP produced by cells and cAMP labelled with the dye d2. The tracer binding is determined by an anti-cAMP antibody labeled with cryptate. The effects of the compound alone (agonism) was determined by performing the assay in the absence of dopamine, whilst the effect of the compound as a positive allosteric modulator (PAM) was determined in the presence of an EC20 concentration of dopamine. Cells (20,000 per well) are incubated in 384 plates for 1 h at rt in a final volume of 20 μLHBSS (Lonza, with calcium, magnesium and HEPES buffer 20 mM, pH 7.4) containing: isobutyl methylxanthine (Sigma, 0.1 mM final), varying concentrations of test compound (typically 10^−9.5 M to 10^−4.5 M) in the presence and absence of dopamine (1.1 nM final). The reaction is then terminated and the cells lysed by adding the d2 detection reagent in lysis buffer (10 μL) and the cryptate reagent in lysis buffer (10 μL) according to manufacturer's instructions. This is then incubated for a further 60 min at rt and changes in HTRF fluorescent emission ratio determined according to manufacturer's instructions using an Envision plate reader (Perkin Elmer, Zaventem, Belgium) with laser excitation. All incubations were performed in duplicate and results were compared to a concentration-effect curve to dopamine. (10^−11 M to 10^−6 M).
Data was analyzed using Excel and PRISM (GraphPad Software) to obtain pEC50 and Erel using the 4-parameter logistic equation (DeLean et al, 1978) where Erel is the fitted maximal response of the test compound minus basal expressed as a percentage relative to that obtained with dopamine which was defined as 100%.

T1 sequence (P14867 28-456): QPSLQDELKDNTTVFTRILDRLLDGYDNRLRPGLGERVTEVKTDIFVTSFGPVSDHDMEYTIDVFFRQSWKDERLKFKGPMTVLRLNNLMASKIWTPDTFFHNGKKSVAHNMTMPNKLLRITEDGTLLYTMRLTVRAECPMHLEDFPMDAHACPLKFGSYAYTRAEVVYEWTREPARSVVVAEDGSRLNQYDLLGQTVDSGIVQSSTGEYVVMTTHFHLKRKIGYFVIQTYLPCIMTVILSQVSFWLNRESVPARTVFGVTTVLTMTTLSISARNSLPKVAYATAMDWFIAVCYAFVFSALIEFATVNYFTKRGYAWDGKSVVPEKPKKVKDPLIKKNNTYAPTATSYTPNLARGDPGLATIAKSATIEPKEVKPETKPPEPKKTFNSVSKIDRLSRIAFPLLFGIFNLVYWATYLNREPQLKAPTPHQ
T1 sequence (P47870 25-512 limits assumed): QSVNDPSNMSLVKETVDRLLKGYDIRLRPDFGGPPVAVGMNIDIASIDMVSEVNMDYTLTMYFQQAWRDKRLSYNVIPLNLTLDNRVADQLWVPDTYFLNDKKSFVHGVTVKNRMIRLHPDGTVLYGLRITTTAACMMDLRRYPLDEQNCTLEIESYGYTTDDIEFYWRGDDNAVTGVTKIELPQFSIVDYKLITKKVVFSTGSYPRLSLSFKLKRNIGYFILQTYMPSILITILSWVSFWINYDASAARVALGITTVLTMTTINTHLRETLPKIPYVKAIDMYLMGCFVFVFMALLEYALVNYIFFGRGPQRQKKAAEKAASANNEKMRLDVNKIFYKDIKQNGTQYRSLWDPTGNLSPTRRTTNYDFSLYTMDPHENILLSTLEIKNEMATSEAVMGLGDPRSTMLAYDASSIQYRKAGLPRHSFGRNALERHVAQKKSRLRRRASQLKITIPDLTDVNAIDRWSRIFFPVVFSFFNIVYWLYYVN
T1 sequence (P18507 40-475): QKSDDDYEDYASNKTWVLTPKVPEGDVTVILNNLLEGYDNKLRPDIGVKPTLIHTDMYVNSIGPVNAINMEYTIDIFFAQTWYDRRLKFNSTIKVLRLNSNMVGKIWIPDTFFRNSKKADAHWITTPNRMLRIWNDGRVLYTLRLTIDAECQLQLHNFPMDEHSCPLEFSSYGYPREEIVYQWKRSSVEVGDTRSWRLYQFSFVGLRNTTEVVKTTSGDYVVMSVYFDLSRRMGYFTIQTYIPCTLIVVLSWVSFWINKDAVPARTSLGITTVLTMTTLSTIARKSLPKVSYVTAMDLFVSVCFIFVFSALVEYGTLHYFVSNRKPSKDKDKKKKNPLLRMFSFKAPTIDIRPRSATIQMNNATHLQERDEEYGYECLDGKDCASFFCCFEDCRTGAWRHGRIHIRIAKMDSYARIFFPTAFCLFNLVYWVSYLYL

| Structure (SMILES) | inhibition at 10 µM [1] | inhibition at 15 min, 20 μM (CYP3A4) | pEC50 (dopamine D1 receptor) |
| --- | --- | --- | --- |
| C[C@H]1[C@H]2CCC[C@@H]([C@H](O)C(F)(F)F)[C@@H]2CCN1C(=O)Cc1c(Cl)cnc(C(C)(C)O)c1Cl [Example 13, 1-[(1S,4aR,5R,8aS)-1-methyl-5-[(1S)-2,2,2-trifluoro-1-hydroxy-ethyl]-3,4,4a,5,6,7,8,8a-octahydro-1H-isoquinolin-2-yl]-2-[3,5-dichloro-2-(1-hydroxy-1-methyl-ethyl)-4-pyridyl]ethanone] | -8% | 20 to 40% | 7.30 |
| C[C@H]1[C@H]2CCC[C@@H]([C@H](O)C(F)(F)F)[C@@H]2CCN1C(=O)Cc1c(Cl)cc(F)c2[nH]nc(Cl)c12 [Example 14, 1-[(1 S,4aR,5R,8aS)-1-methyl-5-[(1 S)-2,2,2-trifluoro-1-hydroxy-ethyl]-3,4,4a,5,6,7,8,8a-octahydro-1H-isoquinolin-2-yl]-2-(3,5-dichloro-7-fluoro-1H-indazol-4-yl)ethanone] | -8% | 40 to 60% | 7.50 |
